Laboratory results taken from patent publication US20100209536A1, “Methods and Kits for Use in the Treatment and Prevention of Diseases or Conditions of the Immune System or Infectious Diseases” (The Brigham and Women's Hospital, Inc., priority 2006, published 2010).

Key:
[1] = system: any wheeze in children; assay: Project Viva vitamin D study: risk of any wheeze during the first three years of life; type: in vivo, human; details: n=416 cases; adjusted for the 12 factors in model A
From the text: Project Viva is a prospective cohort study examining prenatal factors in relation to outcomes of pregnancy and child health. Participants were recruited at eight obstetric offices of Harvard Vanguard Medical Associates, a large multispecialty urban/suburban group practice in eastern Massachusetts. At the 1st study visit, directly after the person's initial clinical prenatal visit, we obtained informed consent, administered a brief interview, and provided a take-home self-administered questionnaire. At the 2nd study visit, at 26 to 28 weeks gestation, we again administered a brief interview and provided a questionnaire. Project Viva participants gave birth at Brigham and Women's Hospital or Beth Israel Deaconess Medical Center in Boston. Within 3 days after delivery, we interviewed the mother. […]
We obtained data directly from participants and from medical records, as detailed previously (Yunginger et al., Am. Rev. Respir. Dis. 146:888-894, 1992). Briefly, maternal diet assessment at both the 1st and 2nd visits was based on a validated 166-item semi-quantitative food frequency questionnaire (FFQ) (Fawzi et al., Ann. Epidemiol. 14:754-762, 2004). […] To assess vitamin and supplement intake during the 1st trimester, we administered a separate interview that assessed dose, duration, and brand/type of multivitamin, prescribed prenatal vitamin, and supplements. […]

[2] = system: respiratory infection in children at age 3 years; assay: Project Viva vitamin D study: risk of respiratory infection in children at age 3 years; type: in vivo, human
From the text: (§1) Project Viva is a prospective cohort study examining prenatal factors in relation to outcomes of pregnancy and child health. Participants were recruited at eight obstetric offices of Harvard Vanguard Medical Associates, a large multispecialty urban/suburban group practice in eastern Massachusetts. At the 1st study visit, directly after the person's initial clinical prenatal visit, we obtained informed consent, administered a brief interview, and provided a take-home self-administered questionnaire. At the 2nd study visit, at 26 to 28 weeks gestation, we again administered a brief interview and provided a questionnaire. Project Viva participants gave birth at Brigham and Women's Hospital or Beth Israel Deaconess Medical Center in Boston. Within 3 days after delivery, we interviewed the mother. We reassessed mothers and children at 6 months, 1 year, and annually thereafter. At the time of this analysis, age 3 visits were almost complete.
(§2) We obtained data directly from participants and from medical records, as detailed previously (Yunginger et al., Am. Rev. Respir. Dis. 146:888-894, 1992). Briefly, maternal diet assessment at both the 1st and 2nd visits was based on a validated 166-item semi-quantitative food frequency questionnaire (FFQ) (Fawzi et al., Ann. Epidemiol. 14:754-762, 2004). We slightly modified the FFQ for use in pregnancy from the FFQ used in the Nurses' Health Study and other cohort studies (Willett, New York: Oxford University Press; 1998). Modifications for use in pregnancy included changing the time referent, beverage section, and vitamin and supplement assessment. The FFQ used at the 1st visit reflected intakes in the 1st trimester and the time referent was “during this pregnancy.” In addition, we collected information on beverage intake during 2 specified time periods: before and after the participant learned that they were pregnant. To assess vitamin and supplement intake during the 1st trimester, we administered a separate interview that assessed dose, duration, and brand/type of multivitamin, prescribed prenatal vitamin, and supplements. The FFQ used at the 2nd visit (26 to 28 weeks of gestation) reflected intakes during the 2nd trimester; the time referent was “during the past 3 months.” The 2nd trimester instrument was the same as the 1st trimester, except that we assessed use of vitamins/supplements as part of the self-completed FFQ and we collected beverage information during the one time period.
(§3) To calculate intake of nutrients, we used the Harvard nutrient composition database (Hu, N. Engl. J. Med. 337:1491-1499, 1997). We calculated vitamin D intake for each FFQ, and the mean of these two values was the assigned exposure for each woman during pregnancy (Rifas-Shiman, Paediatr. Perinat. Epidemiol. 20:35-42, 2006). We used a similar approach for retinol and calcium intakes. For analyses based on foods rather than nutrients, we focused on milk (servings/day), the major contributor to vitamin D intake in the diet. We also examined foods with possible effects on asthma risk (McKeever et al., Am. J. Respir. Crit. Care Med. 170:725-729, 2004; Devereux et al., J. Allergy Clin. Immunol. 115:1109-1117, 2005): fruits and vegetables (servings/day) and fish (servings/week).
(§4) Finally, we examined two related outcomes: respiratory infection and eczema. We defined “respiratory infection” as a positive response to at least one of three questions on any of the annual questionnaires: “since your child was born (was 12 months old, was 2 years old), have you been told by a health professional that he/she has: (a) bronchiolitis; (b) pneumonia; (c) bronchitis, croup, or any other respiratory infection?” We defined “eczema” as a positive response to one question on any of the annual questionnaires: “have you ever been told by a health care professional that your child has eczema?”
(§5) To assess the associations between vitamin D intake and clinical outcomes, we used multiple logistic regression models. […]

[3] = system: cellular response to dexamethasone; details: steroid-resistant asthmatics; cited from earlier work
[4] = system: recurrent wheeze in children at age 3 years; assay: Project Viva vitamin D study: maternal intake during pregnancy and risk of recurrent wheeze in children at age 3 years; type: in vivo, human
From the text: as §1
Exclusion criteria included multiple gestation (e.g., twins), inability to answer questions in English, plans to move out of the area before delivery, and gestational age greater than 22 completed weeks at initial prenatal clinical appointment. Additional details of recruitment and follow-up have been presented elsewhere (Yunginger et al., Am. Rev. Respir. Dis. 146:888-894, 1992). Among 2,128 delivered infants in Project Viva, we excluded 228 because of missing first and second trimester diet assessment data and an additional 37 with a gestation of less than 34 completed weeks. […] Of the remaining 1,495 infants, 76 were lost to follow-up and 225 have not yet exited the 3-year time-window, leaving an analysis sample of 1,194 participants. Human subjects committees of Harvard Pilgrim Health Care, Brigham and. Women's Hospital, and Beth Israel Deaconess Medical Center approved the study protocols.
as §2
as §3, with “We also examined foods with possible effects on asthma risk (McKeever et al., Am. J. Respir. Crit. Care Med. 170:725-729, 2004; Devereux et al., J. Allergy Clin. Immunol. 115:1109-1117, 2005): fruits and vegetables (servings/day) and fish (servings/week).” left out

[5] = system: eczema in children at age 3 years; assay: Project Viva vitamin D study: risk of eczema in children at age 3 years; type: in vivo, human
From the text: as §1, §2, §3, §4, §5

[6] = quartile 2 (median 513 IU) vs quartile 1
[7] = quartile 3 (median 603 IU) vs quartile 1
[8] = quartile 4 (median 724 IU) vs quartile 1

Substance: vitamin D
- Odds ratio, any wheeze, per 100 IU increase of maternal intake [1]: 0.89
- Effect of maternal intake on risk of respiratory infections ([2]; children at age 3 years): did not affect risk
- Odds ratio, respiratory infection, Multivariate model 1 [2, 6]: 0.73
- Odds ratio, respiratory infection, Multivariate model 2 [2, 6]: 0.74
- Odds ratio, respiratory infection, Unadjusted [2, 6]: 0.68
- Odds ratio, respiratory infection, Multivariate model 1 [2, 7]: 1.01
- Odds ratio, respiratory infection, Multivariate model 2 [2, 7]: 1.01
- Odds ratio, respiratory infection, Unadjusted [2, 7]: 0.92
- Odds ratio, respiratory infection, Multivariate model 1 [2, 8]: 0.74
- Odds ratio, respiratory infection, Multivariate model 2 [2, 8]: 0.75
- Odds ratio, respiratory infection, Unadjusted [2, 8]: 0.68
- Effect of supplementation on cellular response to dexamethasone [3]: improve the cellular response to dexamethasone
- Multivariate OR per 100 IU/day increase, recurrent wheeze ([4]; LMP in other seasons): 0.85
- Multivariate OR per 100 IU/day increase, recurrent wheeze ([4]; LMP in winter): 0.62
- Odds ratio, recurrent wheeze, model 2 with further control for child vitamin D intake from foods at 2 years ([4]; maternal intake quartiles, Table 2 model 2 plus child vitamin D intake from foods at 2 years): 0.34
- Odds ratio, recurrent wheeze, model 2 with further control for child use of a vitamin supplement at age 6 months ([4]; maternal intake quartiles, Table 2 model 2 plus child vitamin supplement at 6 months): 0.39
- Odds ratio, recurrent wheeze with 4+ wheezing episodes, per 100 IU increase ([4]; n=86 cases, adjusted for the 12 factors in model A): 0.79
- Odds ratio, recurrent wheeze and a doctor-diagnosis of asthma, per 100 IU increase ([4]; n=132 cases, adjusted for the 12 factors in model A): 0.82
- Odds ratio, recurrent wheeze, further adjustment for race/ethnicity and college education ([4]; per 100 IU/day maternal intake): 0.81
- Odds ratio, recurrent wheeze, per 100 IU/day, Food Only, Unadjusted ([4]; per 100 IU/day maternal intake, Food Only): 0.81
- Odds ratio, recurrent wheeze, per 100 IU/day, Supplement Only, Unadjusted ([4]; per 100 IU/day maternal intake, Supplement Only): 0.82
- Odds ratio, recurrent wheeze, per 100 IU/day, Total intake, Unadjusted ([4]; per 100 IU/day maternal intake, Total): 0.81
- Odds ratio, recurrent wheeze, per 100 IU/day, Food Only, Multivariate model A ([4]; per 100 IU/day, Food Only, adjusted for 12 factors): 0.79
- Odds ratio, recurrent wheeze, per 100 IU/day, Food Only, Multivariate model B ([4]; per 100 IU/day, Food Only, model A plus vitamin D from supplements): 0.80
- Odds ratio, recurrent wheeze, per 100 IU/day, Supplement Only, Multivariate model A ([4]; per 100 IU/day, Supplement Only, adjusted for 12 factors): 0.82
- Odds ratio, recurrent wheeze, per 100 IU/day, Supplement Only, Multivariate model B ([4]; per 100 IU/day, Supplement Only, model A plus vitamin D from foods): 0.82
- Odds ratio, recurrent wheeze, per 100 IU/day, Total, Multivariate model A ([4]; per 100 IU/day, Total, adjusted for 12 factors): 0.80
- Odds ratio, recurrent wheeze, per 100 IU/day, Total, Multivariate model C ([4]; per 100 IU/day, Total, model A plus maternal intake of calcium): 0.79
- Odds ratio, recurrent wheeze, per 100 IU/day, Total, Multivariate model D ([4]; per 100 IU/day, Total, model A plus maternal intake of retinol): 0.81
- Odds ratio, recurrent wheeze, Multivariate model 1 [4, 6]: 0.49
- Odds ratio, recurrent wheeze, Multivariate model 2 [4, 6]: 0.47
- Odds ratio, recurrent wheeze, Unadjusted ([4]; quartile 2 of maternal intake (median 513 IU, range 446-562) vs quartile 1, n = 1,194 pairs): 0.55
- Odds ratio, recurrent wheeze, Multivariate model 1 [4, 7]: 0.56
- Odds ratio, recurrent wheeze, Multivariate model 2 [4, 7]: 0.54
- Odds ratio, recurrent wheeze, Unadjusted ([4]; quartile 3 (median 603 IU, range 563-658) vs quartile 1): 0.55
- Odds ratio, recurrent wheeze, Multivariate model 1 [4, 8]: 0.41
- Odds ratio, recurrent wheeze, Multivariate model 2 [4, 8]: 0.38
- Odds ratio, recurrent wheeze, Unadjusted ([4]; quartile 4 (median 724 IU, range 659-1,145) vs quartile 1 (median 356 IU)): 0.39
- Effect of maternal intake on risk of early childhood eczema ([5]; children at age 3 years): did not affect risk
- Odds ratio, eczema, Multivariate model 1 [5, 6]: 0.88
- Odds ratio, eczema, Multivariate model 2 [5, 6]: 0.86
- Odds ratio, eczema, Unadjusted [5, 6]: 1.00
- Odds ratio, eczema, Multivariate model 1 [5, 7]: 0.94
- Odds ratio, eczema, Multivariate model 2 [5, 7]: 0.93
- Odds ratio, eczema, Unadjusted [5, 7]: 1.03
- Odds ratio, eczema, Multivariate model 1 [5, 8]: 0.95
- Odds ratio, eczema, Multivariate model 2 [5, 8]: 0.92
- Odds ratio, eczema, Unadjusted [5, 8]: 1.10
